The target in assay [1] is Acetylcholinesterase (AChE) (Electrophorus electricus, UniProt O42275). Description: Ellman's assay, purified enzyme from electric eel. Format: biochemical. In general terms: DTNB colorimetry detects thiols as they appear.
Assay [2] has as its target Butyrylcholinesterase (BuChE) (Equus caballus, UniProt P81908). In words: Ellman's assay, purified enzyme from equine serum. Format: biochemical.

We go through one compound from PMC7338734 (Neuroscience Insights, 2020).

Chain of Butyrylcholinesterase (BuChE) (P81908 whole entry): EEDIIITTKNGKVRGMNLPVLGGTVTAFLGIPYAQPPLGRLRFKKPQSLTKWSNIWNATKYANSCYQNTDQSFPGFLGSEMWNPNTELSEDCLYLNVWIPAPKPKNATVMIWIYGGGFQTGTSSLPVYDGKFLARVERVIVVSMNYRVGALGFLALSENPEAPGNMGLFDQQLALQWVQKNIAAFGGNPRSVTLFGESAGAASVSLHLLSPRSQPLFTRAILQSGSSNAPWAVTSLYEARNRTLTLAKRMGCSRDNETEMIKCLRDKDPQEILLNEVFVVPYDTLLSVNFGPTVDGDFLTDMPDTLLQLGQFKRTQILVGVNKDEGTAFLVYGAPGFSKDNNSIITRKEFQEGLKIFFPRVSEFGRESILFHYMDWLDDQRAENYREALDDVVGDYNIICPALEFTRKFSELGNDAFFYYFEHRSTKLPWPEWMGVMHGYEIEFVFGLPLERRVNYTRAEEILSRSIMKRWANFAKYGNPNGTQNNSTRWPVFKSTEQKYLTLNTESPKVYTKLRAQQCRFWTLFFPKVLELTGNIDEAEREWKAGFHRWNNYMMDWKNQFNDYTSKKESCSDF
Chain of Acetylcholinesterase (AChE) (O42275 24-633): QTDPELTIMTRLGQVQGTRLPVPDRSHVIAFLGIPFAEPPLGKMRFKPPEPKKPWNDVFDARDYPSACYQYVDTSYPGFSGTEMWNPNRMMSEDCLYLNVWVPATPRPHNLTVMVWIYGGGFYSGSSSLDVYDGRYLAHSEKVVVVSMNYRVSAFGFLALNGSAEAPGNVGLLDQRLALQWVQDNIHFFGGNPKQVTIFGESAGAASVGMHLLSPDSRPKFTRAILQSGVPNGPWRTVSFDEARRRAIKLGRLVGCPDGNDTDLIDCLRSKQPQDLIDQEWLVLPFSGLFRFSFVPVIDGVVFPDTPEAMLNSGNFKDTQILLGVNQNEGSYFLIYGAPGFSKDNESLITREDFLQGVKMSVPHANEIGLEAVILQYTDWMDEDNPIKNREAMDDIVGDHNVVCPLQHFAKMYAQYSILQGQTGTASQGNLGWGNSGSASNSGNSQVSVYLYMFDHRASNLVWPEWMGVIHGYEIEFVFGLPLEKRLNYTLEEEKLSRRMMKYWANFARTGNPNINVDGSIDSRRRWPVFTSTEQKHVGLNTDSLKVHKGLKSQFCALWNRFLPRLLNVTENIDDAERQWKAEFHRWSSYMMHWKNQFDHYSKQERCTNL

Consider `COc1cc2ccc(=O)oc2cc1O` [scopoletin, 6-methoxy-7-hydroxycoumarin], for which the results for the IC50 in assay [1] and in assay [2] were 5.34 µM and 9.11 µM, respectively.
